Activity calls are given as the source filed them.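 Rule for the calls: active = a tumor-causing dose value with its tumor site reported for any sex and species group of a rodent or other animal cancer study; inconclusive = only studies judged inadequate by the national testing program; inactive = tested in at least one study, none positive.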
Assay: DSSTox (CPDBAS) Carcinogenic Potency Database Summary SingleCellCall Results
Settings: animal chronic carcinogenicity bioassays, CPDB summary call
Summary of the method: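 Categorical carcinogenicity call compiled from published chronic rodent and other animal cancer bioassays; based on the most positive result across experiments for each sex-species, assigned on minimal evidence for or against activity.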

Compound | outcome
ClCOCCl | active; inactive
CC(C)n1c(/C=C/[C@@H](O)C[C@@H](O)CC(=O)O)c(-c2ccc(F)cc2)c2ccccc21 | active
O=[N+]([O-])c1ccccc1 | active
C[N+](C)(C)CCCl | inactive
CCCN(N=O)C(=N)N[N+](=O)[O-] | active
O=NN1CCN(N=O)CC1 | active; inactive
S=C(SN1CCOCC1)N1CCOCC1 | active
C[C@]12CC[C@H](OS(=O)(=O)O)CC1=CC[C@@H]1[C@@H]2CC[C@]2(C)C(=O)CC[C@@H]12 | inactive; active
CCN(Cc1cccc(S(=O)(=O)O)c1)c1ccc(C(=C2C=CC(=[N+](CC)Cc3cccc(S(=O)(=O)O)c3)C=C2)c2ccc(O)cc2S(=O)(=O)[O-])cc1 | inactive
CC(=O)NNc1ccc(CO)cc1 | active
[O-][Br+2]([O-])O | active
CNN | active
Cn1cnc([N+](=O)[O-])c1Sc1ncnc2nc[nH]c12 | active
CCCCCCCCCCN(C)N=O | active
C=CCNN | active
C/C=C/C(=O)Oc1c(C(C)CCCCCC)cc([N+](=O)[O-])cc1[N+](=O)[O-] (stereo not given) | inactive
C=C(C)CCl | active; inactive
c1ccc(N=Nc2ccccc2)cc1 | active
CC(Oc1ccc(Cl)cc1Cl)C(=O)O (stereo not given) | inactive
O=C(O)CNCC(=O)O | inactive
O1[As]2O[As]3O[As]1O[As](O2)O3 | inactive
O=S1(=O)CCCO1 | active
OC(Cn1cncn1)(Cn1cncn1)c1ccc(F)cc1F | active; inactive
CCN(C#N)N=O | active
CC(=O)Nc1nc(NC(C)=O)nc(-c2ccc([N+](=O)[O-])o2)n1 | active
COc1ccc(OC)c(/C=C/c2ccc(N)cc2)c1 | active

Compound | outcome
C/C=C1/C[C@@H](C)[C@](O)(CO)C(=O)OCC2=CCN3CC[C@@H](OC1=O)[C@@H]23 | active
Cc1ccc([N+](=O)[O-])cc1 | active
OCCBr | active; inactive
Cc1cccc(C)c1NC(=O)CN1CCCC1=O | inactive
C=CC(=C)C | active
CCCCCCCCCCCCCCN(C)N=O | active
Cc1cc(=O)n(-c2ccccc2)n1C | active; inactive
Brc1cc(Br)c(-c2c(Br)c(Br)c(Br)c(Br)c2Br)c(Br)c1Br | active; inactive
CC(=O)C1C(=O)C=C(C)OC1=O (stereo not given) | inactive; active
CCOC(=O)N(C)N=O | active
CCN(CC)C(=S)SSC(=S)N(CC)CC | inactive; active
CCOP(=S)(OCC)Oc1cc(C)nc(C(C)C)n1 | inactive; active
Clc1cnc(Oc2ccc(Oc3ncc(Cl)cc3Cl)cc2)c(Cl)c1 | inactive
C[C@H]([C@H](O)CCC(C)(C)O)[C@H]1CC[C@@]2(O)C3=CC(=O)[C@@H]4C[C@@H](O)[C@@H](O)C[C@]4(C)[C@H]3CC[C@]12C | active; inactive
Nc1cc([N+](=O)[O-])ccc1C(=O)O | inactive
CC1(C)O[C@@H]2C[C@H]3[C@@H]4CCC5=CC(=O)C=C[C@]5(C)[C@@]4(F)[C@@H](O)C[C@]3(C)[C@]2(C(=O)CO)O1 | active
CCSCCC(N)C(=O)O (stereo not given) | active
O=[N+]([O-])c1cc([N+](=O)[O-])c(Cl)c(Cl)c1Cl | inactive
CC(C)OC(=O)Nc1cccc(Cl)c1 | inactive; active
CCc1ccc(C(c2ccc(CC)cc2)C(Cl)Cl)cc1 | inactive
O=NN1CSCSC1 | inactive
CN(C)c1ccc(C(=C2C=CC(=[N+](C)C)C=C2)c2ccc(N(C)C)cc2)cc1 | active; inactive
CCCCCC(N)=O | active
CCc1ccccc1 | active
Nc1ncc([N+](=O)[O-])s1 | active
CC(C)Cc1ccc(C(C)C(=O)O)cc1 (stereo not given) | inactive

Compound | outcome
COc1ccc(N)c(OC)c1 | inactive
CCCCCCCCCCCC[N+](C)(C)[O-] | inactive
O=NN1CCOC(O)C1 (stereo not given) | inactive; active
c1ccc2n[nH]nc2c1 | inactive
Nc1nc(-c2ccc([N+](=O)[O-])o2)cs1 | active
CCN(CC)c1cc2oc3cc(=[N+](CC)CC)c(C)cc-3c(-c3ccc(S(=O)(=O)O)cc3S(=O)(=O)[O-])c2cc1C | inactive
CC(O)CN(C)c1ccc(NN)nn1 (stereo not given) | inactive
O=NN(CCCC(F)(F)F)CCCC(F)(F)F | active
CN(N)C=O | active
OC(O)C(Cl)(Cl)Cl | active; inactive
Cc1cc(OC(=O)N(C)C)n(C(C)C)n1 | inactive; active
O=C(O)c1cccnc1 | inactive
Cc1cccc(C)c1N | inactive; active
CC12CCC(CC1)C(C)(C)O2 | inactive
Nc1cc(Cl)c(N)c(Cl)c1 | active; inactive
Nc1ccc(Sc2ccc(N)cc2)cc1 | active
CC(=O)O[C@]1(C(C)=O)CC[C@H]2[C@@H]3C=C(Cl)C4=CC(=O)[C@@H]5C[C@@H]5[C@]4(C)[C@H]3CC[C@@]21C | active; inactive
CNC(=O)CSP(=S)(OC)OC | inactive
CC(=O)Oc1ccccc1C(=O)O | inactive
Cc1ccc(N=Nc2c(O)ccc3ccccc23)c([N+](=O)[O-])c1 | active
O=S1(=O)OCCO1 | inactive
CC(=O)CN(CC(O)CO)N=O (stereo not given) | active
Nc1ccccc1-c1ccccc1 | active; inactive
O=C(O)c1cc(=O)[nH]c(=O)[nH]1 | inactive
C=CCc1ccc2c(c1)OCO2 | active
ON=C1CCCC1 | active; inactive

Compound | outcome
CCCCCN(N=O)C(=N)N[N+](=O)[O-] | inactive
CC(C)(C)c1cc(O)ccc1O | inactive
CCN(C=O)CC | inactive; active
O=c1c(CO)c/c(=N/Nc2ccc(S(=O)(=O)O)c3ccccc23)c(=O)/c1=N/Nc1ccc(S(=O)(=O)O)c2ccccc12 | inactive
Cc1c(C)c2c(c(C)c1O)CCC(C)(CCCC(C)CCCC(C)CCCC(C)C)O2 (stereo not given) | inactive
S=C([S-])NCCNC(=S)[S-].[Mn+2] | active
NCCCC(N)(C(=O)O)C(F)F (stereo not given) | inactive
c1ccc(Nc2ccc(Nc3ccccc3)cc2)cc1 | inactive
C/C=C\c1ccc(OC)cc1 | inactive
O=S(=O)(O)c1ccc(N=Nc2c(O)ccc3cc(S(=O)(=O)O)ccc23)cc1 | inactive
COC(C(=O)O)c1ccccc1 (stereo not given) | inactive; active
CN(C)C(=S)S[Se](SC(=S)N(C)C)(SC(=S)N(C)C)SC(=S)N(C)C | inactive
COc1cc(-c2ccc(N)c(OC)c2)ccc1N | active; inactive
C#CC(C)(C)NC(=O)c1cc(Cl)cc(Cl)c1 | active
CC[C@H](C)C(=O)O[C@H]1C[C@@H](C)C=C2C=C[C@H](C)[C@H](CC[C@@H]3C[C@@H](O)CC(=O)O3)[C@H]21 | active; inactive
C=CBr | active
CC1CC(C)(C)CC(OOC(C)(C)C)(OOC(C)(C)C)C1 (stereo not given) | inactive; active
C=CCl | active; inactive
CCc1nc(N)nc(N)c1-c1ccc(Cl)cc1 | inactive
CC(C)(OCc1ccc(-c2ccc(Cl)cc2)cc1)C(=O)O | active
CCC[CH2][Sn]([CH2]CCC)([CH2]CCC)[O][Sn]([CH2]CCC)([CH2]CCC)[CH2]CCC | inactive
CN(N=O)c1ccc(F)cc1 | active
CCC(O)OC(O)CC (stereo not given) | inactive
O=C(O)COc1ccc(Cl)cc1Cl | inactive
O=NN(CCO)C(=O)NCCCl | active
Nc1c(Cl)c(Cl)nc(C(=O)O)c1Cl | inactive

Compound | outcome
CC1(C)S[C@@H]2[C@H](NC(=O)[C@H](N)c3ccccc3)C(=O)N2[C@H]1C(=O)O | inactive
O=[N+]([O-])/C=C/c1ccccc1 | inactive
COc1ccc(N)cc1 | inactive
CC=O | active; inactive
CC(O)CNC(=O)N(N=O)C(C)Cl (stereo not given) | active
CN(C)C(=S)S | inactive
CCOC(=O)/C=C\C(=O)OCC | inactive; active
Nc1nc(=S)c2ncn([C@H]3C[C@H](O)[C@@H](CO)O3)c2[nH]1 | active
Nc1c(Br)cc(Br)c2c1C(=O)c1ccccc1C2=O | active
O.[Cd+2].[Cl-].[Cl-] | inactive
CC(=O)O[C@@H]1[C@@H](O)C2OC3C=C(C)C(=O)C(O)[C@@]3(CO)[C@]1(C)[C@]21CO1 (stereo not given in full) | inactive
O.O.O.O.O=C([O-])CC(O)(CC(=O)[O-])C(=O)[O-].[Fe+3] | inactive
C=CC(OCC)OCC | inactive
NNc1nc(-c2ccc([N+](=O)[O-])o2)cs1 | active; inactive
COP(=O)(OC)O/C(=C\Cl)c1cc(Cl)c(Cl)cc1Cl | active; inactive
O=C1c2ccccc2C(=O)N1SC(Cl)(Cl)Cl | active
O=C1NCCN1/N=C/c1ccc([N+](=O)[O-])o1 | active
O=C(O)C(Cl)(Cl)Cl | active
Cc1noc(NS(=O)(=O)c2ccc(N)cc2)c1C | inactive
CC1=NN(c2ccccc2)C(=O)C1 | inactive
S=P(N1CC1)(N1CC1)N1CC1 | active
CCSCC[C@H](N)C(=O)O | active; inactive
Cn1cc(C(=O)[C@@H]2CCc3nc[nH]c3C2)c2ccccc21 | inactive; active
CCCCCCCCCCCCCCCC(=O)OC/C=C(C)/C=C/C=C(C)/C=C/C1=C(C)CCCC1(C)C | inactive
O=C1O[C@H]([C@H](O)CO)C(O)=C1O | inactive; active
Cn1cnc2nc(N)[nH]c(=O)c21 | inactive
